We go through 6 molecules from publication PMC7144182, “Synthesis, biological evaluation and molecular modelling of 2,4-disubstituted-5-(6-alkylpyridin-2-yl)-1H-imidazoles as ALK5 inhibitors” (Journal of Enzyme Inhibition and Medicinal Chemistry, 2020).

Several values for one entry are separate records, joined by “and”; a condition that tells them apart may be missing. Identical values can stand only once. Bounds are passed on as bounds.

One may read the IC50 as the concentration at which inhibition is half-maximal.

Series [1] has as its target T1, purified human ALK5 kinase domain (Homo sapiens, UniProt P36897).
T1 construct: using the purified human ALK5 kinase domain produced in Sf9 insect cells; host or cells: Sf9 insect cells
T1 sequence (P36897 205-495 limits assumed): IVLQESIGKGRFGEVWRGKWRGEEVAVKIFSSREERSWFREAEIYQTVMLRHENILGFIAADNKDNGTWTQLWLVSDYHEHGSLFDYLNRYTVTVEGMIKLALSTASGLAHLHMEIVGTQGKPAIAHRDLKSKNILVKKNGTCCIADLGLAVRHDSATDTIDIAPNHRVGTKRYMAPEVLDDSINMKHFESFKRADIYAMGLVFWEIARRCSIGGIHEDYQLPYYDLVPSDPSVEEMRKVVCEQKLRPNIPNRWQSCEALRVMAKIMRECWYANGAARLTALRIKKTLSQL
Nature of the series: ALK5 kinase assay (33PanQinase, casein as substrate). Format: biochemical. As to conditions: for IC50: casein substrate, 1 μM ATP, singlicate (11e: mean of triplicates); for fold less potent than the corresponding 6-methylpyridyl analogue: 11e, 16a, 16e respectively, kinase assay.
Description: To evaluate whether these potential inhibitors 7a–c, 11a–h, and 16a–h could inhibit ALK5, a kinase assay was performed using the purified human ALK5 kinase domain produced in Sf9 insect cells and casein as a substrate (Table 1).

Series [2] relates to TGF-β1-induced luciferase reporter activity, HaCaT (3TP-luc) stable cells. Nature of the series: Cell-based p3TP-luciferase reporter assay. Conditions: for p3TP-luciferase activity (% control): 0.1 μM inhibitor, TGF-β1 2 ng/mL, 24 h, mean ± SD of three independent experiments; for IC50: Homo sapiens, HaCaT, read-out: IC50 for p3TP-luciferase. Here is the method:
To establish HaCaT (3TP-luc) stable cells, cells were seeded on six-well plates. Cells were allowed to adhere overnight and then transfected with the p3TP-luc (neo) expression plasmid using PEI reagent (Sigma Aldrich). Transfected cells were cultured for four weeks in the presence of G418 (500 µg/mL). Several single clones were isolated and measured luciferase activity. The clone showing response to TGF-β1 treatment was used for reporter assay. HaCaT (3TP-luc) stable cells were seeded at 2.5 × 10^4 cells/well in 96-well plate and were allowed to adhere overnight. Cells were concomitantly treated with TGF-β1 (2 ng/mL) and indicated concentrations of ALK5 inhibitors in 0.2% FBS medium and incubated for 24 h at 37 °C in 5% CO2. Cell lysates were prepared using Luciferase Assay System (Promega) according to the manufacturer’s instruction, and luminescence was measured by a luminometer, Micro Lumat Plus (Berthold, Germany).
(In general: Reporter assays use an easily measured gene product as a stand-in for the process of interest.)

In the next series the test system is Caco-2 cells. Nature of the series: Caco-2 cell permeability assay. Format: in vitro ADME. As to conditions: 100 µM, AP to BL, 2 h; mean ± SD of quadruplicates. Here is the method:
Caco-2 cells were seeded in Transwell® polycarbonate filter at a density of 8 × 10^4 cells/filter and cultured for 21 days. Culture medium was removed from both apical (AP) and basolateral (BL) chambers of transwell, and the wells were rinsed three times with PBS. AP buffer (HBSS, pH 6.5) containing 10 mM MES and BL buffer (HBSS, pH 7.4) containing 10 mM HEPES were loaded in AP (500 µL) and BL (1500 µL) chambers, respectively, followed by incubation for 30 min at 37 °C. Then, test compound (100 µM) was added to the AP side and incubated for 2 h at 37 °C. After the incubation, BL buffer was collected and analysed using an UV spectrophotometer at a maximum wavelength (wavelength 225–357 nm).
To estimate oral absorption of target compounds, their permeability in a Caco-2 monolayer was evaluated at a concentration of 100 µM (Table 1).
On the technique in general: Caco-2 cells form a polarised layer with tight junctions and transporters.

For another series, the target named is p38α (Homo sapiens, UniProt Q16539). Nature of the series: p38α kinase assay (33PanQinase, ATF2 as substrate). The class given is biochemical. Conditions: for IC50: ATF2 substrate, mean of duplicates.
p38α, sequence (Q16539 whole entry): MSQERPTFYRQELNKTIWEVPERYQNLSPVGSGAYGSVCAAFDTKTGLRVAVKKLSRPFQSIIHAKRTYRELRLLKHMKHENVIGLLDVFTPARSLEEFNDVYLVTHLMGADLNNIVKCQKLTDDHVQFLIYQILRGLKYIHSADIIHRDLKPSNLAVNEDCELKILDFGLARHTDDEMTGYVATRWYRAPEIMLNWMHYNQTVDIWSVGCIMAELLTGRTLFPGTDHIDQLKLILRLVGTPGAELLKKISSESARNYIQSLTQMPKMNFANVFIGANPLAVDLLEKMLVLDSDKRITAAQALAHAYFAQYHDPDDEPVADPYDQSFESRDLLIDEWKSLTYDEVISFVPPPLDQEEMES
Series [3] addresses T2, ALK5 (Homo sapiens, UniProt P36897).
T2 sequence (P36897 34-503): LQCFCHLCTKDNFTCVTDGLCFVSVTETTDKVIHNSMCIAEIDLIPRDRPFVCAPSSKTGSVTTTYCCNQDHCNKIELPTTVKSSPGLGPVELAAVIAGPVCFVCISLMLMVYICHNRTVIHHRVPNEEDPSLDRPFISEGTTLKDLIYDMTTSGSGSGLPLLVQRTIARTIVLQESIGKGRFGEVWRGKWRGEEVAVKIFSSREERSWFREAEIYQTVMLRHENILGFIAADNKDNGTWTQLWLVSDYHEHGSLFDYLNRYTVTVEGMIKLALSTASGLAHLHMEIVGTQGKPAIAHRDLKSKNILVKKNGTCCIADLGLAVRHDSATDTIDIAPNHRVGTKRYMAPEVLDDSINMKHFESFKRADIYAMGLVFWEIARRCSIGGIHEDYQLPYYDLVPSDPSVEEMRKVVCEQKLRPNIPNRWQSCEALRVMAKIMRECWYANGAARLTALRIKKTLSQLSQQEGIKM

The subject of series [4] is panel of 28 protein kinases. Conditions: panel of 28 protein kinases (19 serine/threonine, 9 tyrosine kinases).
Excerpt: Because ALK5 is a serine/threonine kinase, we chose 19 serine/threonine kinases including ALK5 and an ALK family kinase, ACV-R1 (ALK5, ACV-R1, Aurora-A, ARK5, B-Raf, CK2α1, COT, DAPK1, IRAK4, JNK3, MAPKAPK5, MST4, NEK2, NLK, PAK1, PIM1, PRK1, S6K, SGK1) and 9 tyrosine kinases (ABL1, CSK, FGF-R1, FLT3, IGF1-R, PDGFR-α, SRC, VEGF-R1, ZAP70).
Series [5] has as its system ALK5. Conditions: cited from earlier work.
For series [6], the system named is ALK5. As to conditions: cited from earlier work. The source holds these as a separate data set.
For series [7] the following is noted: rats; cited from earlier work.

In turn, `Cc1cccc(-c2[nH]c(Cc3cccc(C(N)=O)c3)nc2-c2ccc3nccnc3c2)n1` [Compound 11e, 3-((5-(6-Methylpyridin-2-yl)-4-(quinoxalin-6-yl)-1H-imidazol-2-yl)methyl)benzamide] came in with an IC50 in [1] of 36 nM. Besides, the “% inhibition in luciferase reporter assay” value in [2] (0.1 µM inhibitor) came out at 92 % inhibition. In addition, in series [2], the “p3TP-luciferase activity (% control)” value turned out to be 8 ± 5.8 % control and the IC50 came out at 19.6 nM. Moreover, the “Caco-2 permeability (%)” value with Caco-2 cells is 56% and 56 ± 26.8%. Moreover, on p38α, the “Selectivity index (IC50 for p38α/IC50 for ALK5)” value was determined as 22, the “fold less selective against p38α than vactosertib” value amounted to 6.2 fold, the “fold more selective against p38α than galunisertib” value is reported as 5.5 fold and it took 288 nM to reach half-maximal inhibition (IC50). Besides, the “fold higher potency compared to galunisertib” value at ALK5 [3] (ALK5 kinase assay) amounted to 6.6 fold. Besides, the IC50 on ALK5 [3] (read-out: IC50 for ALK5, GSK3 (14–27) substrate, 1 μM ATP, mean of duplicates) was determined as 13 nM. For the same molecule, in series [4], the “Selectivity indices against all the kinases tested” value is more than 100.

In [1], `CCc1cccc(-c2[nH]c(CCc3cccc(C(N)=O)c3)nc2-c2ccc3nccnc3c2)n1` [Compound 16f, 3-(2-(5-(6-Ethylpyridin-2-yl)-4-(quinoxalin-6-yl)-1H-imidazol-2-yl)ethyl)benzamide] registered an IC50 of 66 nM. Moreover, in series [1] (vs 11a), the “fold less potent than the corresponding 6-methylpyridyl analogue” value is on record as 1.4 fold. Besides, the “p3TP-luciferase activity (% control)” value in [2] is 56 ± 14.6 % control. In addition, the “Caco-2 permeability (%)” value with Caco-2 cells was 6% and 6 ± 4.1%.

`CC(C)c1cccc(-c2[nH]c(CCc3cccc(C(N)=O)c3)nc2-c2ccc3nccnc3c2)n1` [Compound 16g, 3-(2-(5-(6-Isopropylpyridin-2-yl)-4-(quinoxalin-6-yl)-1H-imidazol-2-yl)ethyl)benzamide]: in series [1], half-maximal inhibition (IC50) required 593 nM. Further, the “fold more inhibiting than the respective methylene linker analogue” value in series [1] (vs 11a, 11b, 11c, 11g respectively) turned out to be 2.1 fold. Moreover, the “fold less potent than the corresponding 6-methylpyridyl analogue” value in series [1] (vs 11a) is listed as 13–35 fold. The “p3TP-luciferase activity (% control)” value in [2] was 48 ± 41.8 % control. The “Caco-2 permeability (%)” value with Caco-2 cells was 0%.

In [1], `CCCCc1cccc(-c2[nH]c(CCc3cccc(C(N)=O)c3)nc2-c2ccc3nccnc3c2)n1` [Compound 16h, 3-(2-(5-(6-n-Butylpyridin-2-yl)-4-(quinoxalin-6-yl)-1H-imidazol-2-yl)ethyl)benzamide] registered an IC50 of 2880 nM. Further, the “p3TP-luciferase activity (% control)” value in series [2] is 92 ± 10.4 % control. Further, the “Caco-2 permeability (%)” value in the series on Caco-2 cells is reported as 0%.

For `Cc1cccc(-c2nn3c(c2-c2ccnc4ccc(C(N)=O)cc24)CCC3)n1` [Galunisertib (1), reference compound], the IC50 was more than 100 nM in series [2] and 320 nM on p38α.

Regarding `Cc1cccc(-c2[nH]c(CNc3ccccc3F)nc2-c2ccc3ncnn3c2)n1` [Vactosertib (2), N-((4-([1,2,4]triazolo[1,5-a]pyridin-6-yl)-5-(6-methylpyridin-2-yl)-1H-imidazol-2-yl)methyl)-2-fluoroaniline], the “ALK5 inhibitory activity in a kinase assay” value in the series on ALK5 [5] is “subnanomolar”. In addition, the “ALK5 inhibitory activity in a cell-based luciferase reporter assay” value in the series with ALK5 [6] is “subnanomolar”. Also, the oral bioavailability result in series [7] is “moderate”.
